Results taken from patent publication US20240335428A1, “PATEAMINE A DERIVATIVE FOR TREATING PANCREATIC CANCER” (Baylor University, priority 2023, published 2024).

Legend:
[1] = Protein binding in human plasma; assay type: in vitro ADME
c-MYC = test: Western blot of oncoproteins in PDAC cell lines; assay type: cell-based; settings: PDAC cell lines MIA PaCa-2 and AsPC-1, western blot
Excerpt: (§1) FIGS. 3A and 3B are images of western blots showing the effect of DMDAPatA and DMPatA in PDAC cell lines (MiaPaca-2 and AsPc-1). In the figures, MZ735 is DMPatA and PatA is DMDAPatA.
(§2) FIGS. 5A and 5B are images of western blots showing the effect of DMPatA and DMDAPatA on oncoproteins c-MYC and Cyclin D1 in PDAC cell lines: MIA PaCa-2; PANC-1; Capan-1; and AsPC-1. In the figures, MZ is DMPatA and PatA is DMDAPatA.
(§3) eIF4A inhibitors selectively repress the expression levels of key proteins in PDAC cell lines. FIGS. 3A and 3B are images of western blots showing the effect of DMDAPatA and DMPatA in PDAC cell lines (MIA PaCa-2 and AsPC-1). […] These proteins are commonly used as controls in western blot analysis and are so-called because they are typically not susceptible to agents that alter gene or protein expression.
(§4) FIGS. 5A and 5B are images of western blots showing the effect of DMPatA and DMDAPatA on oncoproteins c-MYC and Cyclin D1 in PDAC cell lines: MIA PaCa-2; PANC-1; Capan-1; and AsPC-1.

Cyclin D1 = test: Western blot of oncoproteins in PDAC cell lines; assay type: cell-based; settings: PDAC cell lines MIA PaCa-2 and AsPC-1, western blot
Excerpt: as §1, §2, §3, §4

hyaluronic acid = test: Hyaluronic acid staining (biotinylated-HABP, confocal imaging, CTCF); assay type: cell-based; settings: MIA PaCa-2 cells, 5 nM DMPatA, 24 h versus untreated control, CTCF (P<0.05)
Experimental: (§5) CD44 is the cell surface receptor for hyaluronic acid. Dense stroma with high levels of hyaluronic acid and extracellular matrix are among factors that are said to contribute to drug resistance in PDAC due to reduced permeability of anticancer therapies. Reduction of CD44 could facilitate the activity of chemotherapy or other combination therapy. MIA PaCa-2 cells were treated with 5 nM of DMPatA for 24 h versus untreated control. Cells were stained for HA using biotinylated-HABP and anti-CD44. FIG. 6A compares the analysis of the corrected total cell fluorescence (CTCF) based on data extracted from confocal imaging (P<0.05) and FIG. 6B compares western blot showing the effect of DMPatA and DMDAPatA on stromal proteins HAS3 and CD44. In the figures, MZ and MZ735 are DMPatA and PatA is DMDAPatA.
(§6) MIA PaCa-2 cells were treated with 5 nM of DMPatA for 24 h versus untreated control. Cells were stained for HA using biotinylated-HABP and anti-CD44. FIG. 6A compares the analysis of the corrected total cell fluorescence (CTCF) based on data extracted from confocal imaging (P<0.05) and FIG. 6B compares western blot showing the effect of DMPatA and DMDAPatA on stromal proteins HAS3 and CD44.

[2] = test system: PDAC cell lines: MIA PaCa-2; PANC-1; Capan-1; AsPC-1; test: Cell proliferation / viability assay (CellTiter-Glo); assay type: cell-based; settings: for cell proliferation (viability): PDAC cells, 48 h and 72 h, Cell-Titer Glo
Experimental: FIGS. 2A-2D are viability curves of DMDAPatA and DMPatA in four representative PDAC cell lines: MIA PaCa-2; Panc-1; Capan-1; and AsPC-1. PDAC cell lines were treated with DMPatA and DMDAPatA at the indicated concentrations for 48 h and 72 h. Cell viability was determined using Cell-Titer Glo (Promega). Viability (%, Y-axis) was plotted against drug concentration (log nM, X-axis). In the figures, MZ is DMPatA and PatA is DMDAPatA.
See Example 2. FIGS. 2A-2D are viability curves of DMDAPatA and DMPatA in four representative PDAC cell lines: MIA PaCa-2; PANC-1; Capan-1; and AsPC-1.
In this example, the effectiveness of DMPatA and DMDAPatA in reducing the proliferation of PDAC cancer cell lines is described.
Cell viability was measured using CellTiter-Glo® reagent (Promega, #G7570), according to the manufacturer's instructions. Briefly, cells were seeded at a density of […] in white 96-well plates and allowed to grow overnight. Cells were then treated with/without the combination and single agents as described earlier and incubated 37° C. and 5% CO2 for appropriate time points. After incubation assay reagent was added to the cells and luminescent signal values were quantified using microplate reader (PHERAstar® FS, BMG LABTECH, Ortenberg, Germany).

CD44 = CD44 level (anti-CD44 confocal imaging, western blot); assay type: cell-based; settings: MIA PaCa-2 cells, 5 nM DMPatA, 24 h, CTCF (P<0.05)
Experimental: as §5, §6

[3] = compared with parent natural product PatA; cited from earlier work
Mia-Paca-2 cells = test: Mouse xenograph model (subcutaneous Mia-Paca-2 tumors); assay type: in vivo, female athymic nude mice
Excerpt: In this example, the effectiveness of DMPatA in reducing tumor size in a mouse xenograph model is described.
Intraperitoneal therapy for PDAC. One of the most difficult complications of pancreatic cancer is the development of peritoneal carcinomatosis, which may occur as the presenting manifestation of PDAC, much as occurs with ovarian cancer, or may appear late in the course of the disease. In either case, the prognosis for peritoneal carcinomatosis and cytology-positive ascites is grim, at times portending survival of only a few weeks. […] The second major problem is that recurrent ascites requires frequent large volume paracentesis—which depletes the patient of protein and nutrients. […] Des-methyl pateamine A (DMPatA, MZ735) can be used as a novel intraperitoneal therapy able to directly treat intraperitoneal carcinomatosis. In certain embodiments, the safe intraperitoneal dose is 0.075-0.1 mg/kg, as established in a mouse xenograpgh model.
Fifteen female athymic nude mice were implanted with 5×10^6 Mia-Paca-2 cells, injected subcutaneously into the right flank with 50% Matrigel. Once tumors reached 100-200 mm^3 in volume, mice were randomized and enrolled into the study with three treatment groups including vehicle, MZ735 0.075, MZ735 0.1 mg/kg.
Mice were dosed once every four days interperitoneally (IP) for 28 days. Weights were taken twice per week to ensure overall health. All formulations were prepared on a day prior to, or on the day of dosing, using a serial dilution method and stored at 4° C. Formulations for this study were made using a vehicle of 10% Ethanol, 10% Cremophor EL, 4% glucose, and 76% PBS.
Body weights and tumor measurements were recorded twice weekly per OPTIC core-Tumor Growth Measurement at Columbia University.
At the end of the study mice were euthanized via CO2 asphyxiation, per IACUC approved Euthanasia protocol at Columbia University.

GAPDH and beta-actin = test: Western blot of housekeeping proteins; assay type: cell-based; settings: PDAC cell lines
Excerpt: as §1, §3

## CC(/C=C/C(C)=C/[C@@H]1Cc2nc(cs2)CCCCC(=O)O[C@@H](C)C/C(C)=C/C=C\C(=O)O1)=C\CN(C)C [DMDAPatA, des-methyl des-amino pateamine A]
[1]
  protein binding in human plasma: highly protein bound
c-MYC
  protein level of c-MYC: inhibiting the protein level
Cyclin D1
  protein level of Cyclin D1: inhibiting the protein level
Hyaluronic acid
  levels of hyaluronic acid: reduce the levels
[2]
  cell proliferation (viability): inhibit cell proliferation
CD44
  levels of CD44: reduce the levels
[3]
  stability relative to PatA: more stable

## des-methyl pateamine A [DMPatA]
Mia-Paca-2 cells; 0.075-0.1 mg/kg IP once every four days for 28 days, Mia-Paca-2 xenograft
  volume of subcutaneously implanted tumors: reduce the volume of subcutaneously implanted tumors
Mia-Paca-2 cells; intraperitoneal dose 0.075-0.1 mg/kg, mouse
  absorption via the peritoneum: can be absorbed via the peritoneum
Mia-Paca-2 cells; mouse xenograph model, intraperitoneal
  safe intraperitoneal dose: 0.075 to 0.1 mg/kg
c-MYC
  protein level of c-MYC: inhibiting the protein level
Cyclin D1
  protein level of Cyclin D1: inhibiting the protein level
GAPDH and beta-actin
  expression of housekeeping proteins GAPDH and beta-actin: stably expressed
Hyaluronic acid
  levels of hyaluronic acid: reduce the levels
[2]
  cell proliferation (viability): inhibit cell proliferation
[2]; viability curves in four PDAC cell lines
  potency relative to DMDAPatA: greater potency relative to DMDAPatA
CD44
  levels of CD44: reduce the levels
